Measured values: EP1006108A1, “3-Hydroxy-2(1H)-pyridinone or 3-hydroxy-4(1H)-pyridinone derivatives useful as reactive oxygen species (ROS) scavengers” (Cerebrus Pharmaceuticals Limited, priority 1998, dated 2000)
Counter-ions that a name gives are not always drawn.

How the values were obtained:
[1] = tested on: lipid peroxidation in rat brain homogenates; assay: Lipid peroxidation assay (ascorbic acid induced, MDA/TBA readout); assay type: biochemical; details: concentration inhibiting lipid peroxidation by 50%; rat cortex preparation, 500-µM L-ascorbic acid, 37 °C for 30 min
Protocol: Lipid peroxidation in rat brain homogenates is a general procedure used to measure the antioxidant capacity of molecules in a biological environment (Das N.P. and Ratty A.K., Biochem. Med. Metab. Biol. 1987, 37, 256-264).
Rat cortex was homogenised in 20 vols. of ice cold 0.32-M sucrose and centrifuged at 1,000 g for 10 min. The pellet was discarded whilst the resulting supernatant was centrifuged at 15,000 g for 20 min at 4 °C to yield p2 pellets. The pellet was re-suspended in ice-cold 50.0-mM phosphate buffer and centrifuged at 30,000 g for 20 min at 4 °C. The pellet was re-suspended in 30 vols, of 50.0-mM phosphate buffer and used immediately in the assay.
Assays contained 500-µM L-ascorbic acid to induce lipid peroxidation, plus various concentrations of test compound, with the tissue preparation in a total volume of 500 µL. This was incubated at 37 °C for 30 min. Lipid peroxidation was measured by adding to the reaction mixture, 300 µL 40 % (w/v) trichloroacetic acid, 150 µL 5.0-M HCl and 300 µL 2 % (w/v) 2-thiobarbituric acid (TBA). Samples were then heated at 90 °C in a water bath for 15 min, and centrifuged at 15,000 g for 10 min. The pink colour of the supernatant was assessed spectrophotometrically at a wavelength of 532 nm. The amount of malondialdehyde (MDA) in the samples was calculated using a standard curve prepared with malondialdehyde tetrabutylammonium salt (Das, N.P. and Ratty, A.K. Biochem. Med. Metab. Biol. 1987, 37, 256-264).
The IC50 values show the concentration of test compound required to inhibit the lipid peroxidation by 50%.

[2] = tested on: cerebellar granule cell (CGC) cultures; assay: Iodoacetate (IAA) induced cell death, MTT-reductase readout; assay type: cell-based; details: Cell Toxicity, 30-µM IAA for 30 min plus 10-µM MK-801, then test compound, 24 hour incubation
Protocol: After 6-8 days in culture, cerebellar granule cell (CGC) cultures in 96-well plates (250,000 cells per well) were prepared for hypoglycaemia. Iodoacetate (IAA) was made up in a balanced salt solution (BSS) (NaCI, 154.0-mM; KCl, 5.6-mM; MgCl2, 1.0-mM; CaCl2, 2.5-mM; N-[2-hydroxyethyl]piperazine-N'-[2-ethanesulfonic acid] (HEPES), 10.0-mM; D-glucose, 5.6-mM; pH 7.4) and any neuroprotective agents were made up in pre-warmed tissue culture media and allowed to equilibrate in a controlled environment (5 % CO2, 95 % air). The assay was initiated by aspiration of the maintenance media, which was replaced by either BSS (control) or 30-µM IAA in BSS, both solutions containing 10-µM of the NMDA receptor antagonist MK-801. The exposure to IAA was for 30 min only at 37 °C, after which time the BSS was aspirated and replaced with fresh, pre-equilibriated maintenance media containing various concentrations of test compound. All conditions were performed at least in duplicate in each 96 well plate. The final volume for each well was always 200 µL. Following a 24 hour incubation, visual inspection of the cells was followed by quantification of neuronal cell death by measuring 3-[4,5-dimethylthiazol-2-yl]-2,5-diphenyltetrazolium bromide (MTT)-reductase activity as described previously (Malcolm et al., J. Neurochem. 1996, 66, 2350-2360).

oxidation of DCFH to DCF = assay: Measurement of intracellular oxidative stress (DCFH-DA fluorescence); assay type: cell-based; details: 0.5 h, concentration blocking oxidation of DCFH to DCF by 50%, 30.0-µM IAA, 30 minutes, read from Figure 1
Protocol: IAA-stimulated fluorescence values are given as a function of concentration of the test compound.
Intracellular oxidative stress was measured using the oxidant-sensitive fluorescent dye 2',7'-dichlorodihydrofluorescein diacetate (DCFH-DA) (Molecular Probes). The non-fluorescent DCFH-DA readily crosses cell membranes whereupon it is trapped within the cytoplasm by deacetylation to the non-membrane permeable form dichlorodihydrofluorescein (DCFH). Upon oxidation, DCFH yields the highly fluorescent product dichlorofluorescein (DCF). Briefly, growth medium was aspirated from cultures and replaced with 200 µl BSS (plus 10.0-µM MK-801) or BSS (plus 10.0-µM MK-801) containing 30.0-µM IAA alone or in combination with various concentrations of antioxidants. After incubation at 37 °C for 30 minutes, cultures were aspirated once more and 10.0-µM DCFH-DA (200 µL) added to all wells. After a further 20 minute incubation at 37 °C, fluorescence was measured in a Cytofluor II fluorescent plate reader (λex=485nm; λem=530nm). Background fluorescence values from wells treated with 2 % Triton X-100 were subtracted from both basal and stimulated fluorescence values and the effects of test compounds expressed as a percent inhibition of the IAA-stimulated fluorescence increase over basal.
The EC50 value gives the effective concentration of test compound required to block the oxidation of DCFH to DCF by 50%. […]

Compound	IC50 [1]	EC50 (oxidation of DCFH to DCF)	EC50 [2]
2-(1,4-Dihydro-3-hydroxy-2-methyl-4-oxo-1-pyridinyl)ethyl 3,4-dihydro-6-hydroxy-2,5,7,8-tetramethyl-2H-benzopyran-2-carboxylate [Example 3]	1.5 µM		1.8 µM
Cc1c(O)c(=O)ccn1CCNCc1cc(C(C)(C)C)c(O)c(C(C)(C)C)c1 [Example 2, 1-[2-(3,5-Di-tert-butyl-4-hydroxybenzylamino)ethyl]-3-hydroxy-2-methyl-4(1H)-pyridinone dihydrochloride]	0.2 µM		3.3 µM
Cc1c(C)c2c(c(C)c1O)CC(CC(=O)NCCn1ccc(=O)c(O)c1C)O2 (stereo not drawn) [Example 8, N-(2-(1,4-Dihydro-3-hydroxy-2-methyl-4-oxo-1-pyridinyl)ethyl)-2,3-dihydro-5-hydroxy-4,6,7-trimethylbenzofuran-2-acetamide]	0.5 µM		3.8 µM
Cc1c(C)c2c(c(C)c1O)CC(CC(=O)OCCn1ccc(=O)c(O)c1C)O2 (stereo not drawn) [Example 9, 2-(1,4-Dihydro-3-hydroxy-2-methyl-4-oxo-1-pyridinyl)ethyl 2,3-dihydro-5-hydroxy-4,6,7-trimethylbenzofuran-2-acetate]	0.4 µM		1.6 µM
Cc1c(C)c2c(c(C)c1O)CC(CCOC(=O)CCn1ccc(=O)c(O)c1C)O2 (stereo not drawn) [Example 10, 2-(2,3-Dihydro-5-hydroxy-4,6,7-trimethylbenzofuran-2-yl)ethyl 3-(1,4-dihydro-3-hydroxy-2-methyl-4-oxo-1-pyridinyl)propanoate]	0.2 µM	0.8 µM	~5.3 µM
N-(2-(1,4-Dihydro-3-hydroxy-2-methyl-4-oxo-1-pyridinyl)ethyl)-3,4-dihydro-6-hydroxy-2,5,7,8-tetramethyl-2H-benzopyran-2-carboxamide [Example 4]	1 µM		1.8 µM

Continued by falling IC50 [1], values first:

IC50 [1]	EC50 (oxidation of DCFH to DCF)	Compound	EC50 [2]
0.8 µM		Cc1c(C)c2c(c(C)c1O)CCC(C)(CNC(=O)CCn1ccc(=O)c(O)c1C)O2 (stereo not drawn) [Example 5, 3-(1,4-Dihydro-3-hydroxy-2-methyl-4-oxo-1-pyridinyl)-N-(3,4-dihydro-6-hydroxy-2,5,7,8-tetramethyl-2H-benzopyran-2-yl)methylpropanamide]	2.6 µM
0.2 µM		Cc1c(O)c(=O)ccn1CCC(=O)NCCCc1cc(C(C)(C)C)c(O)c(C(C)(C)C)c1 [Example 1, 3-(1,4-Dihydro-3-hydroxy-2-methyl-4-oxo-1-pyridinyl)-N-(3-(3,5-di-tert-butyl-4-hydroxyphenyl)propyl)propanamide]	0.3 µM
0.2 µM		Cc1c(C)c2c(c(C)c1O)CCC(C)(COCCn1ccc(=O)c(O)c1C)O2 (stereo not drawn) [Example 6]	~3 µM
0.1 µM		Cc1c(C)c2c(c(C)c1O)CCC(C)(CNCCCCn1ccc(=O)c(O)c1C)O2 (stereo not drawn) [Example 7, 1-[4-(3,4-Dihydro-6-hydroxy-2,5,7,8-tetramethyl-2H-benzopyran-2-yl)methylamino)butyl]-3-hydroxy-2-methyl-4(1H)-pyridinone dihydrochloride]	0.6 µM
